# Assay results reported in patent publication US20090155209A1, “NOVEL MACROCYCLIC INHIBITORS OF HEPATITIS C VIRUS REPLICATION” (priority 2007, published 2009).
# Where two headings read alike, the source gives them in different places.
# Test: Single ascending dose study, fasted and fed: safety and non-compartmental plasma PK
# Assay type: in vivo, healthy volunteers (human)
# Settings: for AUC0-inf / Cmax / half-life / Tmax: human, plasma, oral; for Tmax: read-out: Tmax
# Description: A single ascending dose (SAD) study of the compound 100 was conducted in healthy volunteers. The compound 100 was administered as monotherapy both with and without food. The safety and pharmacokinetic profile of the single dose of the compound 100 was assessed.
# Interim, blinded data were used for Pharmacokinetic (PK) study relating to food effects. With the exception of the 400 mg cohort, eight subjects were studied at each dose (single doses of 100, 200, or 800 mg of the sodium salt of the compound 100, which may be referred to herein as ITMN-191, administered in the fasting state). In the 400 mg cohort, ten subjects received single 400 mg doses of ITMN-191 under both fasted and fed conditions with a 5-day washout period between dosing. In the 100 mg cohort, subjects were sampled within 1 hour before dosing and at 0.5, 1, 1.5, 2, 2.5, 3, 4, 6, 8, 12, 18, 24, 32 and 48 hours after dosing. For subsequent cohorts, subjects were sampled within 1 hour before dosing and at 0.25, 0.5, 1, 1.5, 2, 2.5, 3, 4, 6, 8, 12, 18, 24, and 32 hours after dosing. Nominal (not actual) sampling times were used for the analysis. PK samples were analyzed using liquid chromatography-tandem mass spectrometry (LC/MS/MS with API 4000 mass spectrometer) following solid-phase extraction. The upper and lower limits of quantitation (ULOQ and LLOQ) are 100 and 0.01 ng/mL, respectively.
# Pharmacokinetic parameter estimates were calculated using non-compartmental methods (implemented using Microsoft Excel®). Half-lives were determined by visual inspection of the log concentration-time plots to choose the terminal phase (minimum of three detectable observations). Using linear regression of the chosen terminal phase observations, elimination rate constants were calculated as the negative slope of the regression line and half-life as the natural log of 2 divided by the elimination rate constant.
# Ten subjects received single 1600 mg doses of ITMN-191 under both fasted and fed conditions with a 5-day washout period between dosing. For each condition, subjects were sampled within 1 hour before dosing and at 0.25, 0.5, 1, 1.5, 2, 2.5, 3, 4, 6, 8, 12, 18, 24, and 32 hours after dosing. Pharmacokinetic parameter estimates were calculated using non-compartmental methods. Half-life (t1/2) was determined by visual inspection of the log concentration-time plots to choose the terminal phase (minimum of three detectable observations). Using linear regression of the chosen terminal phase observations, elimination rate constants were calculated as the negative slope and half-life as the natural log of 2 divided by the elimination rate constant.
smiles,measurement,setting,value
CC(C)(C)OC(=O)N[C@H]1CCCCC/C=C\[C@@H]2C[C@@]2(C(=O)NS(=O)(=O)C2CC2)NC(=O)[C@@H]2C[C@@H](OC(=O)N3Cc4cccc(F)c4C3)CN2C1=O [ITMN-191],fold increase of median AUC0-inf and Cmax,1600 mg fasted versus 800 mg cohort,3-4 fold
same,dose linearity of pharmacokinetics based on AUC0-inf,dose range of 100-800 mg,linear
same,AUC0-inf,"100 mg, median, single 100 mg dose, fasting state, N=8, read-out: AUC0-inf",20.4 ng·h/mL
same,Cmax,"100 mg, median, single 100 mg dose, fasting state, N=8, read-out: Cmax",14.7 ng/mL
same,half-life,"100 mg, median, single 100 mg dose, fasting state, N=8, read-out: T1/2 (converted)",1.78 h
same,Tmax,"100 mg, median, single 100 mg dose, fasting state, N=8",0.75 h
same,AUC0-inf,"200 mg, median, single 200 mg dose, fasting state, N=8, read-out: AUC0-inf",36.8 ng·h/mL
same,Cmax,"200 mg, median, single 200 mg dose, fasting state, N=8, read-out: Cmax",30.2 ng/mL
same,half-life,"200 mg, median, single 200 mg dose, fasting state, N=8, read-out: T1/2 (converted)",1.49 h
same,Tmax,"200 mg, median, single 200 mg dose, fasting state, N=8",0.75 h
same,AUC0-inf,"400 mg, median, single 400 mg dose (Fasted), N=10, read-out: AUC0-inf",81 ng·h/mL
same,Cmax,"400 mg, median, single 400 mg dose (Fasted), N=10, read-out: Cmax",63.8 ng/mL
same,half-life,"400 mg, median, single 400 mg dose (Fasted), N=10, read-out: T1/2 (converted)",1.53 h
same,Tmax,"400 mg, median, single 400 mg dose (Fasted), N=10",1 h
same,AUC0-inf,"400 mg, median, single 400 mg dose (Fed), N=10, read-out: AUC0-inf",113 ng·h/mL
same,Cmax,"400 mg, median, single 400 mg dose (Fed), N=10, read-out: Cmax",56.6 ng/mL
same,half-life,"400 mg, median, single 400 mg dose (Fed), N=10, read-out: T1/2 (converted)",1.74 h
same,Tmax,"400 mg, median, single 400 mg dose (Fed), N=10",2.5 h
same,AUC0-inf,"800 mg, 800 mg cohort, fasting, single dose, read-out: median AUC0-inf",194 ng·h/mL
same,Cmax,"800 mg, 800 mg cohort, fasting, single dose, read-out: median Cmax",216 ng/mL
same,AUC0-inf,"800 mg, median, single 800 mg dose, fasting state, N=8, read-out: AUC0-inf",194 ng·h/mL
same,Cmax,"800 mg, median, single 800 mg dose, fasting state, N=8, read-out: Cmax",216 ng/mL
same,half-life,"800 mg, median, single 800 mg dose, fasting state, N=8, read-out: T1/2 (converted)",1.91 h
same,Tmax,"800 mg, median, single 800 mg dose, fasting state, N=8",0.5 h
same,AUC0-inf,"1600 mg, 1600 mg fasted cohort, single dose, read-out: median AUC0-inf",737 ng·h/mL
same,Cmax,"1600 mg, 1600 mg fasted cohort, single dose, read-out: median Cmax",685 ng/mL
same,AUC0-inf,"1600 mg, Geometric Mean of 10 subjects, single 1600 mg dose, Fasted, read-out: AUC0-inf",667 ng·h/mL
same,Cmax,"1600 mg, Geometric Mean of 10 subjects, single 1600 mg dose, Fasted, read-out: Cmax",538 ng/mL
same,half-life,"1600 mg, Geometric Mean of 10 subjects, single 1600 mg dose, Fasted, read-out: t½ (converted)",2.38 h
same,AUC0-inf,"1600 mg, Geometric Mean of 10 subjects, single 1600 mg dose, Fed, read-out: AUC0-inf",1010 ng·h/mL
same,Cmax,"1600 mg, Geometric Mean of 10 subjects, single 1600 mg dose, Fed, read-out: Cmax",422 ng/mL
same,half-life,"1600 mg, Geometric Mean of 10 subjects, single 1600 mg dose, Fed, read-out: t½ (converted)",2.5 h
same,AUC0-inf,"1600 mg, Harmonic Mean of 10 subjects, single 1600 mg dose, Fasted, read-out: AUC0-inf",639 ng·h/mL
same,Cmax,"1600 mg, Harmonic Mean of 10 subjects, single 1600 mg dose, Fasted, read-out: Cmax",453 ng/mL
same,half-life,"1600 mg, Harmonic Mean of 10 subjects, single 1600 mg dose, Fasted, read-out: t½ (converted)",2.29 h
